Test results as given in article PMC5655388, “Nicotinamide-based diamides derivatives as potential cytotoxic agents: synthesis and biological evaluation” (Chemistry Central Journal, 2017).
Converted amounts (≈) assume the structure as drawn.

Assays:
[1] = test system: NCI-H460 (Human large cell lung cancer cell line); test: MTT in vitro cytotoxicity assay, NCI-H460; type: cell-based; settings: for IC50: Homo sapiens, NCI-H460 cells, MTT assay, mean ± SD; for Cytotoxic (inhibitory) activity at single concentration, NCI-H460: 40 µg/mL, preliminary screen (Fig. 4), result in words
Protocol: (§1) All newly prepared nicotinamide-based diamides derivatives 4a–k and several similar diamides 4l–o were evaluated for their in vitro cytotoxic effects against NCI-H460 (Human large cell lung cancer cell line), A549 (Human lung cancer cell line), NCI-H1975 (Human lung cancer cell line), HL-7702 (Human normal liver cells), and MDCK (Madin-Darby canine kidney cells) cell lines by the modified MTT (3-(4,5-dimethylthiazol-2-yl)-2,5-diphenyl tetrazolium bromide) assay using 5-FU (5-Fluorouracil) as a positive control.
(§2) The in vitro cytotoxicity of the synthesized compounds against different human lung cancer cell lines (NCI-H460, A549, NCI-H1975) and normal cells (HL-7702 and MDCK) were measured with the 3-(4,5-dimethylthiazol-2-yl)-2,5-diphenyl tetrazolium bromide (MTT) assay. All the data of the experiment were analyzed with SPSS software, and the 50% inhibitory concentrations (IC50) of each compound for the different cell lines were determined. A control was run for each test, and all assays were performed in triplicate on three independent experiments, and measurement data were expressed as the mean ± SD.

[2] = test system: A549 (Human lung cancer cell line); test: MTT in vitro cytotoxicity assay, A549; type: cell-based; settings: for IC50: Homo sapiens, A549 cells, MTT assay, mean ± SD; for Cytotoxic (inhibitory) activity at single concentration, A549: 40 µg/mL, preliminary screen (Fig. 4), result in words
Protocol: as §1, §2

[3] = test system: NCI-H1975 (Human lung cancer cell line); test: MTT in vitro cytotoxicity assay, NCI-H1975; type: cell-based; settings: for IC50: Homo sapiens, NCI-H1975 cells, MTT assay, mean ± SD; for Cytotoxic (inhibitory) activity at single concentration, NCI-H1975: 40 µg/mL, preliminary screen (Fig. 4), result in words
Protocol: as §1, §2

[4] = MTT in vitro cytotoxicity assay, HL-7702 normal cells; type: cell-based; settings: human, HL-7702 normal liver cells, mean ± SD
Protocol: as §1, §2

[5] = MTT in vitro cytotoxicity assay, MDCK normal cells; type: cell-based, canine; settings: dog, MDCK normal kidney cells, mean ± SD
Protocol: as §1, §2

Row | Compound | IC50 [1] [µg/mL] | IC50 [2] [µg/mL] | IC50 [3] [µg/mL] | IC50 [4] [µg/mL] | IC50 [5] [µg/mL] | Cytotoxic (inhibitory) activity at single concentration, NCI-H460 [1] | Cytotoxic (inhibitory) activity at single concentration, A549 [2] | Cytotoxic (inhibitory) activity at single concentration, NCI-H1975 [3]
1 | NC(=O)c1cccnc1NC(=O)c1ccccc1Nc1cccc(C(F)(F)F)c1 [4a, 2-(2-((3-(Trifluoromethyl)phenyl)amino)benzamido)nicotinamide] | > 40 | > 40 | > 40 | > 40 | > 40 |  |  | 
2 | CNC(=O)c1cccnc1NC(=O)c1ccccc1Nc1cccc(C(F)(F)F)c1 [4b, N-Methyl-2-(2-((3-(trifluoromethyl)phenyl)amino)benzamido)nicotinamide] | 36.7 ± 2.8 (≈ 88.5 µM) | > 40 | > 40 | > 40 | > 40 |  |  | 
3 | CC(O)CNC(=O)c1cccnc1NC(=O)c1ccccc1Nc1cccc(C(F)(F)F)c1 (centres unmarked) [4c, N-(2-Hydroxypropyl)-2-(2-((3-(trifluoromethyl)phenyl)amino)benzamido)nicotinamide] | 20.6 ± 1.37 (≈ 45 µM) | 26.3 ± 3.22 (≈ 57.4 µM) | 27.2 ± 2.76 (≈ 59.4 µM) | 19.7 ± 0.45 (≈ 43 µM) | 17 ± 0.84 (≈ 37 µM) | significant inhibitory activities | significant inhibitory activities | significant inhibitory activities
4 | CC(=O)CNC(=O)c1cccnc1NC(=O)c1ccccc1Nc1cccc(C(F)(F)F)c1 [4d, N-(2-Oxopropyl)-2-(2-((3-(trifluoromethyl)phenyl)amino)benzamido)nicotinamide] | 4.07 ± 1.3 (≈ 8.92 µM) | 13.1 ± 2.45 (≈ 28.7 µM) | 12.8 ± 1.59 (≈ 28.1 µM) | 26.9 ± 0.95 (≈ 58.9 µM) | 13.4 ± 0.29 (≈ 29.5 µM) | significant inhibitory activities | significant inhibitory activities | significant inhibitory activities
5 | Cc1cc(Cl)cc(C(N)=O)c1NC(=O)c1cccnc1Nc1cccc(C(F)(F)F)c1 [4e, N-(2-Carbamoyl-4-chloro-6-methylphenyl)-2-((3-(trifluoromethyl)phenyl)amino)nicotinamide] | > 40 | > 40 | > 40 | > 40 | > 40 |  | selective cytotoxicity | 
6 | CNC(=O)c1cc(Cl)cc(C)c1NC(=O)c1cccnc1Nc1cccc(C(F)(F)F)c1 [4f, N-(4-Chloro-2-methyl-6-(methylcarbamoyl)phenyl)-2-((3-(trifluoromethyl)phenyl)amino)nicotinamide] | > 40 | > 40 | > 40 | > 40 | > 40 |  |  | 
7 | NC(=O)c1cccnc1NC(=O)c1cccnc1Nc1cccc(C(F)(F)F)c1 [4g, N-(3-Carbamoylpyridin-2-yl)-2-((3-(trifluoromethyl)phenyl)amino)nicotinamide] | 9.17 ± 2.02 (≈ 22.8 µM) | 20.1 ± 0.48 (≈ 50.1 µM) | 10.8 ± 2.22 (≈ 27 µM) | 9.86 ± 0.34 (≈ 24.6 µM) | 13 ± 1.27 (≈ 32.5 µM) | significant inhibitory activities | significant inhibitory activities | significant inhibitory activities
8 | CNC(=O)c1cccnc1NC(=O)c1cccnc1Nc1cccc(C(F)(F)F)c1 [4h, N-Methyl-2-(2-((3-(trifluoromethyl)phenyl)amino)nicotinamido)nicotinamide] | 9.31 ± 2.66 (≈ 22.4 µM) | 17.2 ± 3.4 (≈ 41.4 µM) | 12.4 ± 2.52 (≈ 29.9 µM) | 11.6 ± 2.08 (≈ 28 µM) | 11.1 ± 0.24 (≈ 26.6 µM) | significant inhibitory activities | significant inhibitory activities | significant inhibitory activities
9 | CC(O)CNC(=O)c1cccnc1NC(=O)c1cccnc1Nc1cccc(C(F)(F)F)c1 (centres unmarked) [4i, N-(2-Hydroxypropyl)-2-(2-((3-(trifluoromethyl)phenyl)amino)nicotinamido)nicotinamide] | 13.1 ± 4.49 (≈ 28.5 µM) | 16.5 ± 3.53 (≈ 36 µM) | 9.15 ± 1.64 (≈ 19.9 µM) | 14.5 ± 2.19 (≈ 31.6 µM) | 11.62 ± 0.06 (≈ 25.3 µM) | significant inhibitory activities | significant inhibitory activities | significant inhibitory activities
10 | NC(=O)c1cc2ccccc2cc1NC(=O)c1cccnc1Nc1cccc(C(F)(F)F)c1 [4j, N-(3-Carbamoylnaphthalen-2-yl)-2-((3-(trifluoromethyl)phenyl)amino)nicotinamide] | 38.4 ± 3.95 (≈ 85.3 µM) | 24.8 ± 3 (≈ 55 µM) | 25.2 ± 3.35 (≈ 55.9 µM) | 18.1 ± 1.63 (≈ 40.2 µM) | 14.3 ± 0.66 (≈ 31.7 µM) |  |  | 
11 | CNC(=O)c1cc2ccccc2cc1NC(=O)c1cccnc1Nc1cccc(C(F)(F)F)c1 [4k, N-(3-(Methylcarbamoyl)naphthalen-2-yl)-2-((3-(trifluoromethyl)phenyl)amino)nicotinamide] | > 40 | 35.3 ± 2.19 (≈ 76 µM) | > 40 | > 40 | > 40 |  | selective cytotoxicity | 
12 | Cc1cc(Cl)cc(C(N)=O)c1NC(=O)c1ccccc1Nc1cccc(C(F)(F)F)c1 [4l, 5-Chloro-3-methyl-2-(2-((3-(trifluoromethyl)phenyl)amino)benzamido)benzamide] | > 40 | > 40 | > 40 | > 40 | > 40 |  | selective cytotoxicity | 
13 | CNC(=O)c1cc(Cl)cc(C)c1NC(=O)c1ccccc1Nc1cccc(C(F)(F)F)c1 [4m, 5-Chloro-N,3-dimethyl-2-(2-((3-(trifluoromethyl)phenyl)amino)benzamido)benzamide] | 6.85 ± 0.23 (≈ 14.8 µM) | 6.77 ± 0.86 (≈ 14.7 µM) | 10.8 ± 1.02 (≈ 23.4 µM) | 21.4 ± 1.79 (≈ 46.4 µM) | 21.2 ± 3.59 (≈ 46 µM) | good inhibition activities | good inhibition activities | good inhibition activities
14 | NC(=O)c1cc2ccccc2cc1NC(=O)c1ccccc1Nc1cccc(C(F)(F)F)c1 [4n, 3-(2-((3-(Trifluoromethyl)phenyl)amino)benzamido)-2-naphthamide] | > 40 | > 40 | > 40 | > 40 | 14.44 ± 0.01 (≈ 32.1 µM) |  |  | 
15 | CNC(=O)c1cc2ccccc2cc1NC(=O)c1ccccc1Nc1cccc(C(F)(F)F)c1 [4o, N-Methyl-3-(2-((3-(trifluoromethyl)phenyl)amino)benzamido)-2-naphthamide] | > 40 | > 40 | > 40 | > 40 | > 40 |  |  | 
16 | O=c1[nH]cc(F)c(=O)[nH]1 [5-FU, 5-Fluorouracil, reference compound] | 8.02 ± 2.35 (≈ 61.7 µM) | 37.5 ± 3.25 (≈ 288 µM) | 24.8 ± 5.8 (≈ 190 µM) | 11.3 ± 1.67 (≈ 87.3 µM) | 8.65 ± 0.81 (≈ 66.5 µM) |  |  | 
